The source of these data is patent US10004740B2, “Prodrugs of HIV reverse transcriptase inhibitors” (Merck Sharp & Dohme Corp., priority 2014, dated 2018).

For series [1], the target named is T1, HIV-1 RT wild-type enzyme (Human immunodeficiency virus type 1 group M subtype B, UniProt P04585).
T1 construct: The HIV-1 RT wild-type enzyme (final concentration of 83 pM)
Kind of series: Determination of HIV-1 reverse transcriptase inhibitory activity (RT polymerase assay, electrochemiluminescence). It is filed as biochemical. The text has this: Determination of HIV-1 Reverse Transcriptase Inhibitory Activity
The heterodimeric nucleic acid substrate used in the HIV-1 RT polymerase reactions was generated by annealing the DNA primer, biotinylated pD500 (Sigma Aldrich, USA, 5′-biotin-ttg aaa tga ctg cgg tac ggc-3′), (SEQ ID NO: 1) to the nucleotide RNA template t500 (derived from hepatitis C virus [HCV] sequence, IBA, Germany, 5′-[…]-3′), (SEQ ID NO: 2). The HIV-1 RT wild-type enzyme (final concentration of 83 pM) was combined with an inhibitor or dimethyl sulfoxide (DMSO, 10% in the final reaction mixture) in assay buffer (62.5 mM Tris-HCl [pH 7.8], 1.25 mM dithiothreitol, 7.5 mM MgCl2, 100 mM KCl, 0.03% CHAPS, and 125 μM EGTA). The mixture was then preincubated on an orbital shaker for 30 min at room temperature in microtiter plates (Costar 3365, Corning, USA). A polymerization reaction was initiated by the addition of RNA template/pD500 DNA primer hybrid (16.6 nM final of RNA/DNA hybrid) and dNTPs (2 μM dATP, dGTP, dCTP and 66.6 nM Ru-dUTP (Meso Scale Discovery, USA)). Plate was sealed and incubated for 5-10 min at room temperature on an orbital shaker. Plate was then incubated for 90 min at 37° C. and reactions quenched with 60 μl quenching buffer (50 mM EDTA, 0.7% BSA, 0.7% Tween-20, 0.017% sodium azide in PBS). The resulting solution was incubated at room temperature for an additional 5 min and then 50 μL was transferred to pre-blocked Avidin plates (L15AA, Meso Scale Discovery). Each well of Avidin plate was blocked for 1 h at room temperature with 100 μL 5% BSA in PBS. Blocking solution was removed by tapping vigorously on filter paper to remove all excess liquid. Reaction on pre-blocked avidin plate proceeded for 60 min at room temperature and then contents removed by tapping vigorously on filter paper to remove all excess liquid. After washing plate 3 times with 150 μL 1×PBS and blotting dry between cycles, 150 μL 1× Read Buffer T (4× Read Buffer T, Meso Scale Discovery) was added and incubated for 5 min at room temperature before counting on a Sector Imager […] (Meso Scale Discovery). Titration curves and IC50 values were calculated using a four parameter logistic fit according to standard procedures. Briefly, % Inhibition=100×((sample raw value)−(mean value of the low control or 0% inhibition))/((mean value of wells representing 100% inhibition)−(mean value of 0% inhibition)). In this assay, low control wells contain DMSO (0% inhibition) and 100% inhibition wells contain 1 μM efavirenz.

Series [2] can be described thus: Pharmacokinetic studies in rats, oral gavage, plasma LC-MS/MS. It counts as in vivo. Conditions: male, Wistar-Hannover; rat, 5 mg/kg PO, 40% PEG400/10% Tween-80/50% water; plasma concentration of Parent after dosing the Parent compound. As for the experimental part: All animal studies were carried out under Good Laboratory Practice regulations for nonclinical laboratory studies. All animal housing and care procedures were in compliance with the Federal Animal Welfare Act and the Institute for Laboratory Animal Resources. All procedures carried out on the animals were reviewed and approved by the Institutional Animal Care and Use Committee. The animal facility was fully accredited with the Association for Assessment and Accreditation of Laboratory Animal Care International.
Two or three male Wistar-Hannover rats weighing 250 to 350 grams with vendor-placed carotid artery catheters were obtained from Charles River (Raleigh, N.C., U.S.A.). Animals were acclimated on a 12-hour light:dark cycle for a minimum of three days in ventilated plastic cages with food and water ad libitum. Blood samples were automatically collected using the Instech Automated Blood sampler (ABS, Plymouth Meeting, Pa.) at designated intervals up to 24 hr and were manually collected post 24 hr.
Animals were fasted overnight before either the Parent compounds of Examples 1-8 (Formula I′) or compounds of Examples 1 to 8 (Formula I) were administered to rats via an oral gavage at the doses and in vehicles specified in Table 3. The animals were allowed access to water ad libitum, while food was returned 4 hours after dosing.
Blood was drawn from catheters placed in the carotid […] at pre-dose, and 0.25, 0.5, 1, 2, 4, 8, 12, 18, 24, 30, and 48 hr after dosing for all compounds and additionally at 72 hr for compounds of example 1, 3, 4, 5, and 7. The plasma was separated by centrifugation (2 minutes at 10000 rpm) and stored at −70° C. until further analysis.
The quantitative analysis of the compounds was performed using a liquid chromatography and tandem mass spectrometry method (LC-MS/MS). The plasma samples were stabilized as needed prior to extraction. Fifty microliter of each unknown together with the standards and quality control samples were extracted using an automated protein precipitation procedure on a Hamilton workstation. The extract was centrifuged and the supernatant was transferred for analysis. The separation was enabled by a Thermo Aria LX-2 LC system on a reversed phase column e g Waters XSelect HSS T3 XP (50×2.1 mm×2.5 u) or Phenomenex Beta Test Column (50×2.1 mm). The compounds were detected using selected reaction monitoring (SRM) methods by an AB Sciex API5000 mass spectrometer in the positive or negative ionization mode. In addition, chromatographic peaks for Parent compounds of Examples 1-8 (Formula I′) and compounds of Examples 1 to 8 (Formula I) were resolved chromatographically with baseline to baseline separation.
Pharmacokinetic parameters were obtained using noncompartmental methods (Watson®). The area under the plasma concentration-time curve (AUC0-t) was calculated from the first time point (0 minutes) up to the last time point with measurable drug concentration (i.e., concentration of Parent (Formula I′ compound) resulting after administration of each of the Parent and Example compounds) using the linear trapezoidal or linear/log-linear trapezoidal rule. The remaining area under the plasma concentration-time curve (AUCt-∞) was estimated by dividing the observed concentration at the last time point by the elimination rate constant. This value was added to AUC0-t to estimate the AUC0-∞. The maximum plasma concentration (Cmax) and the time at which maximum concentration occurred (Tmax) were obtained by inspection of the plasma concentration-time data.
Table 3 provides AUC values obtained in these studies. In Table 3, the Parent of each Example number refers to the Parent counterpart compound of said Example number compound wherein R^4 is replaced with —H.

Usually IC50 stands for the concentration at which inhibition is half-maximal. Lower therefore signals greater potency. One may read the AUC(0-inf) as total exposure, with the tail of the curve extrapolated.

Take `N#Cc1cc(Cl)cc(Oc2c(C(F)F)ncn(Cc3cc(Cl)n[nH]c3=O)c2=O)c1` [Parent of Ex. 2, 3-chloro-5-((1-((6-chloro-3-oxo-2,3-dihydropyridazin-4-yl)methyl)-4-(difluoromethyl)-6-oxo-1,6-dihydropyrimidin-5-yl)oxy)benzonitrile]: inhibition in series [1] was half-maximal at 3.3 nM (IC50). In addition, the AUC(0-inf) in series [2] turned out to be 15.3 µM·h.

Turning to `N#Cc1cc(Cl)cc(Oc2c(C(F)(F)F)ncn(Cc3cc(Cl)n[nH]c3=O)c2=O)c1` [Parent of Ex. 3, 3-chloro-5-((1-((6-chloro-3-oxo-2,3-dihydropyridazin-4-yl)methyl)-6-oxo-4-(trifluoromethyl)-1,6-dihydropyrimidin-5-yl)oxy)benzonitrile], in series [1], the IC50 was 2.7 nM. The AUC(0-inf) in series [2] is 10.2 µM·h.

In series [1], `N#Cc1cc(Cl)cc(Oc2c(C(F)(F)F)ncn(Cc3cc(C(F)F)n[nH]c3=O)c2=O)c1` [Parent of Ex. 4, 3-chloro-5-((1-((6-(difluoromethyl)-3-oxo-2,3-dihydropyridazin-4-yl)methyl)-6-oxo-4-(trifluoromethyl)-1,6-dihydropyrimidin-5-yl)oxy)benzonitrile] had an IC50 of 3.2 nM. Moreover, the AUC(0-inf) in series [2] was found to be 21 µM·h.

The molecule `CC(F)(F)c1cc(Cn2cnc(C(F)(F)F)c(Oc3cc(Cl)cc(C#N)c3)c2=O)c(=O)[nH]n1` [Parent of Ex. 5, 3-chloro-5-((1-((6-(1,1-difluoroethyl)-3-oxo-2,3-dihydropyridazin-4-yl)methyl)-6-oxo-4-(trifluoromethyl)-1,6-dihydropyrimidin-5-yl)oxy)benzonitrile] yielded an IC50 in series [1] of 4.6 nM. For the same molecule, the AUC(0-inf) in series [2] stood at 29.1 µM·h.

In series [1], `N#Cc1cc(Cl)cc(Oc2c(C(F)(F)F)ncn(Cc3cc(C(F)(F)F)c(=O)[nH]n3)c2=O)c1` [Parent of Ex. 6, 3-chloro-5-((6-oxo-1-((6-oxo-5-(trifluoromethyl)-1,6-dihydropyridazin-3-yl)methyl)-4-(trifluoromethyl)-1,6-dihydropyrimidin-5-yl)oxy)benzonitrile] returned an IC50 of 7.9 nM. Also, the AUC(0-inf) in series [2] was 2 µM·h.

As for `N#Cc1cc(Cl)cc(Oc2c(C(F)(F)F)ncn(Cc3cc(-c4ccc(F)cc4)c(=O)[nH]n3)c2=O)c1` [Parent of Ex. 7, 3-chloro-5-((1-((5-(4-fluorophenyl)-6-oxo-1,6-dihydropyridazin-3-yl)methyl)-6-oxo-4-(trifluoromethyl)-1,6-dihydropyrimidin-5-yl)oxy)benzonitrile], the IC50 in series [1] came out at 3.7 nM. The AUC(0-inf) in series [2] amounted to 8.2 µM·h.

As to `CC(F)(F)c1cc(Cn2cnc(C(C)(F)F)c(Oc3cc(Cl)cc(C#N)c3)c2=O)c(=O)[nH]n1` [Parent of Ex. 8, 3-chloro-5-((4-(1,1-difluoroethyl)-1-((6-(1,1-difluoroethyl)-3-oxo-2,3-dihydropyridazin-4-yl)methyl)-6-oxo-1,6-dihydropyrimidin-5-yl)oxy)benzonitrile], the IC50 in series [1] is 4.7 nM. In addition, in series [2], the AUC(0-inf) stood at 13.9 µM·h.
